The results in this text go back to patent publication US9273014B2, “Bis(fluoroalkyl)-1,4-benzodiazepinone compounds and prodrugs thereof” (Bristol-Myers Squibb Company, priority 2012, dated 2016).

The structures appear in SMILES notation.

For series [1], the system named is TALL1 Human T-cell acute lymphoblastic leukemia. In words: Human tumor xenograft model in mice, TALL1. As to conditions: oral administration, 10 mg/kg, QDx10; LCK = Log Cell Kill. Format: in vivo. How it is done:
Human Tumor Xenograft Models in Mice
Mice were fed food and water ad libitum.
Tumor growth inhibition is calculated as follows: […]
When death occurred, the day of death was recorded.
For orientation: In xenograft studies the graft and the host belong to different species.

A further series can be described thus: in vitro. As to conditions: human, microsomes, pH 7.4.
For another series, the target named is human Notch 3 (Homo sapiens, UniProt Q9UM47). In words: Notch-CBF1 Transactivation Assay (Notch 3). It counts as cell-based. As to conditions: HeLa cells co-transfected with truncated Notch 3 and CBF1 luciferase reporter; 18 hours incubation. An excerpt: Notch-CBF1 Transactivation Assay
The Notch-CBF1 (C-promoter binding factor I) cell based transactivation assay is based on the ability of the released Notch intracellular domain fragments (NICDs) to function as transcription factors in conjunction with CBF1 and other nuclear factors. Luciferase assays were used to measure the antagonism of Notch-CBF1 transcriptional activity. HeLa cervical cancer cells are transiently co-transfected with pCDNA3.1/Hygro plasmids containing truncated Notch 1, Notch 2, Notch 3, or Notch 4 receptors and a PGL3 luciferase reporter vector containing 4 copies of CBF1 binding site. The cells were then tested for Notch-CBF1 activity in the absence or presence of test compounds. HeLa cells, maintained in DMEM (high glucose with HEPES), 1× glutamine/penicillin/streptomycin and 10% Fetal Bovine serum, were transiently transfected in a T175 Flask (4.5×10^6 cells/flask) using the Monster Transfection Kit (Minis #MIR2906) according to manufacturers specifications. Table 9 denotes respective DNA quantity for the transfections.
Assay media (5 μL) containing test compounds in final concentrations ranging from 5 μM to 8.4×10^−5 μM (3 fold serial dilutions) were added to the cells and the cell plates were then incubated for 18 hours at 37° C. and 5% CO2. Control wells contained DMSO vehicle (total counts) or 0.5 μM of an in-house small molecule inhibitor (background counts). Duplicates were used for each sample. Luciferase activity was measured after a 20-minute incubation with 50 μl STEADY-GLO® luciferase reagents according to manufacturer's specifications (Promega, Cat. #E2550) and analyzed by Envision plate reader (PerkinElmer, Boston, Mass.).
The antagonist effect of compounds was expressed as 100×[1−(average sample-average background)/(average total−average background)] where sample is the luciferase activity in the presence of test compound, background is equal to the luciferase activity in the presence of the small molecule inhibitor control and the total is signal induced in DMSO wells.

For the next series, the system named is human tumor xenografts. Nature of the series: Human tumor xenograft models in mice (general statement). Format: in vivo. As to conditions: orally administered (PO). How it is done: Mice were fed food and water ad libitum. […] [table] […] When death occurred, the day of death was recorded.
The nature of series [2]: human metabolic stability half-life assay. As to conditions: microsomes, pH 7.4.
A short description of series [3]: Prodrug evaluation: single-dose pharmacokinetics in rats. Particulars: rat, oral gavage, dose 3.00 mg/kg.
Method: Male SPRAGUE DAWLEY® rats (250-300 g) were used for the pharmacokinetic studies. Rats were fasted overnight prior to dosing and fed 4 hrs post dose. In each study, groups of animals (N=2-3) received the test compound by oral gavage. Blood samples (˜0.3 mL) were collected from the jugular vein into K2EDTA-containing tubes at 0.5, 1, 3, 5, 7, and 24 h post dose. Plasma samples, obtained by centrifugation at 4° C. (1500-2000× g), were stored at −20° C. until analysis by LC/MS/MS.
The pharmacokinetic parameters were obtained by non-compartmental analysis of plasma concentration (determined by LC/MS/MS) vs. time data (ThermoKinetica Software version 5.0). The peak concentration (Cmax) and time for Cmax, Tmax, were recorded directly from experimental observations. The area under the curve from time zero to the last sampling time (AUC0-t) was calculated using a combination of linear and log trapezoidal summations. The total plasma clearance (CLTp), steady-state volume of distribution (Vss), apparent elimination half-life (t1/2) and mean residence time (MRT) were estimated after IV administration. […] The absolute oral bioavailability F was estimated as the ratio of dose-normalized AUC values following oral and IV doses.

Sequence of human Notch 3 (Q9UM47 40-2321 limits assumed): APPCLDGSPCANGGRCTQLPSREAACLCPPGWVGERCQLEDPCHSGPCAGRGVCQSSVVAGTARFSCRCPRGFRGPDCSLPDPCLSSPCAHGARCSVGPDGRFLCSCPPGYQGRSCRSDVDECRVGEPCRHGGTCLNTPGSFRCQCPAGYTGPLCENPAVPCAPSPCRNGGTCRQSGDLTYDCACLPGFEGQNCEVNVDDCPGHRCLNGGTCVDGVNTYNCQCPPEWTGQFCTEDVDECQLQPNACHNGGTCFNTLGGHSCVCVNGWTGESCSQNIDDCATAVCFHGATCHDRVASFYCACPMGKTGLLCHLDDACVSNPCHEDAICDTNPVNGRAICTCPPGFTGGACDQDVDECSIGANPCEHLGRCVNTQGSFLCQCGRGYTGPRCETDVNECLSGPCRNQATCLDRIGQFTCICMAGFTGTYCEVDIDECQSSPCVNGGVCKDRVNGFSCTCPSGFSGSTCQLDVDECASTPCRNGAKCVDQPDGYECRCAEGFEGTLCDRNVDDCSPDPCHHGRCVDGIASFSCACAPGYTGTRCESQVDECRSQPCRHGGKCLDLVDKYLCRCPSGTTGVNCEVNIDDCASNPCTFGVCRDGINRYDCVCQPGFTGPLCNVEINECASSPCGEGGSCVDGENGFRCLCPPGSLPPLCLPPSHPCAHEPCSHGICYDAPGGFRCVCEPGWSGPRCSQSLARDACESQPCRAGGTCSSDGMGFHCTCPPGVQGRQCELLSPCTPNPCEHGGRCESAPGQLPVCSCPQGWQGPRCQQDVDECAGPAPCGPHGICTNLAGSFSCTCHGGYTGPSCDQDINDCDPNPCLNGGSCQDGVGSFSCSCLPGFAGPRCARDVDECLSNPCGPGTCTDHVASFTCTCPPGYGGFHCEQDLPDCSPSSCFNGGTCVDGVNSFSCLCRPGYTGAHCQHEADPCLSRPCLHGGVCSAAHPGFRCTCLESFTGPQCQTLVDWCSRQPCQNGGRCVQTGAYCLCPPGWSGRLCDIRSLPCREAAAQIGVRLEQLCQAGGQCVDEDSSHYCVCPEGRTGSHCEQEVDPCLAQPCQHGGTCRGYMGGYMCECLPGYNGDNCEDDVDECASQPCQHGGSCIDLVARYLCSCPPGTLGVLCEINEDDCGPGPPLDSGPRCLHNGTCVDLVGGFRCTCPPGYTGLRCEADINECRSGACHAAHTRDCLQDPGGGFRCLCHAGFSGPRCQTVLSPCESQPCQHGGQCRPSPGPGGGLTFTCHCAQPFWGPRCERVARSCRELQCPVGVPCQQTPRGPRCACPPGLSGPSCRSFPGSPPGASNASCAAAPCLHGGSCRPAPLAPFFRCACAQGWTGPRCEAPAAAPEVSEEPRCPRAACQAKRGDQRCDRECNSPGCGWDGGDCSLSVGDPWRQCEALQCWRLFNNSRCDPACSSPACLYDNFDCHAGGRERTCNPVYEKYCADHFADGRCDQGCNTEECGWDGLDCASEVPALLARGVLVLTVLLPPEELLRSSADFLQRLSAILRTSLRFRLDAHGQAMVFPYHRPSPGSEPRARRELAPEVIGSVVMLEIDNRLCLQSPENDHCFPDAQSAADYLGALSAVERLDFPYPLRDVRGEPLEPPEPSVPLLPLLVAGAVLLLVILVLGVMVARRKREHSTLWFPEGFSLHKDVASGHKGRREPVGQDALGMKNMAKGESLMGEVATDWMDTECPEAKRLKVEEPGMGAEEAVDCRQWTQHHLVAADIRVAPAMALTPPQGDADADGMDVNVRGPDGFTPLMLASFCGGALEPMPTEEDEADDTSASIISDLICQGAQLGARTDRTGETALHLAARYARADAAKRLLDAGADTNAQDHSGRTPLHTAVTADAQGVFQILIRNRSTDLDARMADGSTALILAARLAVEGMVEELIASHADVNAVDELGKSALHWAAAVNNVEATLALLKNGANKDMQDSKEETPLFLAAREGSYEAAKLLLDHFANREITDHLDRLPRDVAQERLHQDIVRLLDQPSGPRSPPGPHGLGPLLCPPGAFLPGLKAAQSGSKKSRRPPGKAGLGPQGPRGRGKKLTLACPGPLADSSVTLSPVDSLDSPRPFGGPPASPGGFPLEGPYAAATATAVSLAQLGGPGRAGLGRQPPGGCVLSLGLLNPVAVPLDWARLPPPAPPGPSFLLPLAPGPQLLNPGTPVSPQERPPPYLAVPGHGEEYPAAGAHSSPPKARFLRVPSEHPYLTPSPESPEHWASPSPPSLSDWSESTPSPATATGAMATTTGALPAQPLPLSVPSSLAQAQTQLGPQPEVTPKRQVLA

The half-life is the time in which the quantity being followed falls by half. As a reminder, the IC50 is the concentration that gives 50% inhibition. For `CC(C)c1cccc2c1NC(=O)[C@@H](NC(=O)[C@H](CCC(F)(F)F)[C@H](CCC(F)(F)F)C(N)=O)N=C2c1cccc(Cl)c1` [Example 3, (2R,3S)—N-((3S)-5-(3-Chlorophenyl)-9-isopropyl-2-oxo-2,3-dihydro-1H-1,4-benzodiazepin-3-yl)-2,3-bis(3,3,3-trifluoropropyl)succinamide], the “Antitumor Activity TALL1 (LCK)” value in series [1] was determined as 4.0. Further, the half-life in the series “in vitro” was 1.22 h. Besides, at human Notch 3, inhibition was half-maximal at 1.9 nM (IC50). The “antitumor activity in human tumor xenografts implanted in mice” value in the series on human tumor xenografts is “showed antitumor activity”.

In the series “in vitro”, `Cc1cccc(C2=N[C@H](NC(=O)[C@H](CCC(F)(F)F)[C@H](CCCC(F)(F)F)C(N)=O)C(=O)Nc3c(Cl)cccc32)c1` [Example 17, (2R,3S)—N-((3S)-9-Chloro-5-(3-methylphenyl)-2-oxo-2,3-dihydro-1H-1,4-benzodiazepin-3-yl)-3-(4,4,4-trifluorobutyl)-2-(3,3,3-trifluoropropyl)succinamide] gave a half-life of 0.933 h. The compound further returned a concentration for half-maximal inhibition (IC50) against human Notch 3 of 2.4 nM.

On to `Cc1cccc2c1NC(=O)[C@@H](NC(=O)[C@H](CCC(F)(F)F)[C@H](CCCC(F)(F)F)C(N)=O)N=C2c1cccc(C(F)(F)F)c1` [Example 18, (2R,3S)—N-((3S)-9-Methyl-2-oxo-5-(3-(trifluoromethyl)phenyl)-2,3-dihydro-1H-1,4-benzodiazepin-3-yl)-3-(4,4,4-trifluorobutyl)-2-(3,3,3-trifluoropropyl)succinamide], for which the half-life in the series “in vitro” was above 2 h. The 50% inhibitory concentration (IC50) against human Notch 3 is 7.7 nM.

On to `NC(=O)[C@@H](CCC(F)(F)F)[C@@H](CCC(F)(F)F)C(=O)N[C@H]1N=C(c2ccccc2)c2cccc(OC3CC3)c2NC1=O` [Example 19, (2R,3S)—N-((3S)-9-(Cyclopropyloxy)-2-oxo-5-phenyl-2,3-dihydro-1H-1,4-benzodiazepin-3-yl)-2,3-bis(3,3,3-trifluoropropyl)succinamide], for which the half-life in the series “in vitro” came out at 1.8 h. In addition, the IC50 at human Notch 3 was determined as 4 nM.

Regarding `Cc1cccc2c1NC(=O)[C@@H](NC(=O)[C@H](CCC(F)(F)F)[C@H](CCC(F)(F)F)C(N)=O)N=C2c1cccc(C(F)(F)F)c1` [Example 20, (2R,3S)—N-((3S)-9-Methyl-2-oxo-5-(3-(trifluoromethyl)phenyl)-2,3-dihydro-1H-1,4-benzodiazepin-3-yl)-2,3-bis(3,3,3-trifluoropropyl)succinamide], the half-life in “in vitro” is above 2 h. At human Notch 3, this compound returned a concentration for half-maximal inhibition (IC50) of 1.4 nM.

In the series “in vitro”, `Cc1ccccc1C1=N[C@H](NC(=O)[C@H](CCC(F)(F)F)[C@H](CCC(F)(F)F)C(N)=O)C(=O)Nc2c(Cl)cccc21` [Example 21, (2R,3S)—N-((3S)-9-Chloro-5-(2-methylphenyl)-2-oxo-2,3-dihydro-1H-1,4-benzodiazepin-3-yl)-2,3-bis(3,3,3-trifluoropropyl)succinamide] displayed a half-life of 1.78 h. The same compound yielded a half-maximal inhibitory concentration (IC50) against human Notch 3 of 6.1 nM.

For `Cc1cccc2c1NC(=O)[C@@H](NC(=O)[C@H](CCC(F)(F)F)[C@H](CCC(F)(F)F)C(N)=O)N=C2c1ccc(F)cc1` [Example 22, (2R,3S)—N-((3S)-5-(4-Fluorophenyl)-9-methyl-2-oxo-2,3-dihydro-1H-1,4-benzodiazepin-3-yl)-2,3-bis(3,3,3-trifluoropropyl)succinamide], the half-life in “in vitro” was above 2 h. This compound also yielded a half-inhibitory concentration (IC50) against human Notch 3 of 6.3 nM.

`Cc1cccc2c1NC(=O)[C@@H](NC(=O)[C@H](CCC(F)(F)F)[C@H](CCC(F)(F)F)C(N)=O)N=C2c1ccccc1` [Example 23, (2R,3S)—N-((3S)-9-Methyl-2-oxo-5-phenyl-2,3-dihydro-1H-1,4-benzodiazepin-3-yl)-2,3-bis(3,3,3-trifluoropropyl)succinamide] came in with a half-life in “in vitro” of 1.68 h. This compound also had an IC50 at human Notch 3 of 8.3 nM.

In “in vitro”, `NC(=O)[C@@H](CCC(F)(F)F)[C@@H](CCC(F)(F)F)C(=O)N[C@H]1N=C(c2ccccc2)c2cccc(C3CC3)c2NC1=O` [Example 24, (2R,3S)—N-((3S)-9-Cyclopropyl-2-oxo-5-phenyl-2,3-dihydro-1H-1,4-benzodiazepin-3-yl)-2,3-bis(3,3,3-trifluoropropyl)succinamide] showed a half-life of 1.03 h. The same compound gave a 50% inhibitory concentration (IC50) on human Notch 3 of 2.1 nM.

For the compound `NC(=O)[C@@H](CCC(F)(F)F)[C@@H](CCC(F)(F)F)C(=O)N[C@H]1N=C(c2cccc(C3CC3)c2)c2cccc(Cl)c2NC1=O` [Example 25, (2R,3S)—N-((3S)-9-Chloro-5-(3-cyclopropylphenyl)-2-oxo-2,3-dihydro-1H-1,4-benzodiazepin-3-yl)-2,3-bis(3,3,3-trifluoropropyl)succinamide], the half-life in “in vitro” was above 2 h. On human Notch 3, this compound gave a concentration for half-maximal inhibition (IC50) of 2.9 nM.

In the case of `COc1cccc2c1NC(=O)[C@@H](NC(=O)[C@H](CCC(F)(F)F)[C@H](CCC(F)(F)F)C(N)=O)N=C2c1cccc(Cl)c1` [Example 26, (2R,3S)—N-((3S)-5-(3-Chlorophenyl)-9-methoxy-2-oxo-2,3-dihydro-1H-1,4-benzodiazepin-3-yl)-2,3-bis(3,3,3-trifluoropropyl)succinamide], in the series “in vitro”, the half-life worked out at 1.37 h. The IC50 on human Notch 3 turned out to be 3.4 nM.

Compound `COc1cccc2c1NC(=O)[C@@H](NC(=O)[C@H](CCC(F)(F)F)[C@H](CCC(F)(F)F)C(N)=O)N=C2c1ccc(Cl)cc1` [Example 27, (2R,3S)—N-((3S)-5-(4-Chlorophenyl)-9-methoxy-2-oxo-2,3-dihydro-1H-1,4-benzodiazepin-3-yl)-2,3-bis(3,3,3-trifluoropropyl)succinamide] yielded a half-life at 0.5 µM in series [2] of 1.92 h.

In turn, `Cc1cccc(C2=N[C@H](NC(=O)[C@H](CCC(F)(F)F)[C@H](CCC(F)(F)F)C(N)=O)C(=O)Nc3c(Cl)cccc32)c1` [Example 28, (2R,3S)—N-((3S)-9-Chloro-5-(3-methylphenyl)-2-oxo-2,3-dihydro-1H-1,4-benzodiazepin-3-yl)-2,3-bis(3,3,3-trifluoropropyl)succinamide] had a half-life in the series “in vitro” of 1.63 h. Besides, the IC50 at human Notch 3 stood at 7.2 nM.

Take `Cc1ccccc1C1=N[C@H](NC(=O)[C@H](CCC(F)(F)F)[C@H](CCC(F)(F)F)C(N)=O)C(=O)Nc2ccccc21` [Example 31, (2R,3S)—N-((3S)-5-(2-Methylphenyl)-2-oxo-2,3-dihydro-1H-1,4-benzodiazepin-3-yl)-2,3-bis(3,3,3-trifluoropropyl)succinamide]: the half-life in “in vitro” was 1.67 h. The half-maximal inhibitory concentration (IC50) against human Notch 3 turned out to be 4.6 nM.

`COc1cccc2c1NC(=O)[C@@H](NC(=O)[C@H](CCC(F)(F)F)[C@H](CCC(F)(F)F)C(N)=O)N=C2c1ccc(C(F)(F)F)cn1` [Example 33, (2R,3S)—N-((3S)-9-Methoxy-2-oxo-5-(5-(trifluoromethyl)-2-pyridinyl)-2,3-dihydro-1H-1,4-benzodiazepin-3-yl)-2,3-bis(3,3,3-trifluoropropyl)succinamide]: the half-life in the series “in vitro” amounted to 1.37 h. This compound also returned an IC50 on human Notch 3 of 7.4 nM.

Consider `Cc1ccc(C2=N[C@H](NC(=O)[C@H](CCC(F)(F)F)[C@H](CCC(F)(F)F)C(N)=O)C(=O)Nc3ccccc32)cc1` [Example 36, (2R,3S)—N-((3S)-5-(4-Methylphenyl)-2-oxo-2,3-dihydro-1H-1,4-benzodiazepin-3-yl)-2,3-bis(3,3,3-trifluoropropyl)succinamide], for which the half-life in the series “in vitro” was above 2 h. The midpoint of inhibition against human Notch 3, the IC50, lay at 3 nM.

As for `NC(=O)[C@@H](CCC(F)(F)F)[C@@H](CCC(F)(F)F)C(=O)N[C@H]1N=C(c2cccc(F)c2)c2cccc(CO)c2NC1=O` [Example 37, (2R,3S)—N-((3S)-5-(3-Fluorophenyl)-9-(hydroxymethyl)-2-oxo-2,3-dihydro-1H-1,4-benzodiazepin-3-yl)-2,3-bis(3,3,3-trifluoropropyl)succinamide], the half-life in “in vitro” is 1.02 h. Besides, at human Notch 3, the half-inhibitory concentration (IC50) was 9.3 nM.

For `Cc1cccc2c1N(COC(=O)Cc1ccc(OP(=O)(O)O)cc1)C(=O)[C@@H](NC(=O)[C@H](CCC(F)(F)F)[C@H](CCC(F)(F)F)C(N)=O)N=C2c1cccc(F)c1` [Example 43, ((3S)-3-(((2R,3S)-3-Carbamoyl-6,6,6-trifluoro-2-(3,3,3-trifluoropropyl)hexanoyl)amino)-5-(3-fluorophenyl)-9-methyl-2-oxo-2,3-dihydro-1H-1,4-benzodiazepin-1-yl)methyl(4-(phosphonooxy)phenyl)acetate], in series [3], the “% Relative Bioavailability to Example 1” value came out at 35% and the “AUC0-24 h of Example 1 after Administration of Prodrug” value is 0.193 µM·h.
